# Experimental data published in patent US20060194821A1, “Compounds inhibiting the aggregation of superoxide dismutase-1” (The Brigham and women's Hospital, Inc., priority 2005, published 2006).
# Entries after “also recorded” stand apart in the source; their conditions may differ.
# What was measured:
# Assay type in all cases: biochemical
# SOD = experiment: Testing of structural analogs for inhibition of SOD aggregation; details: Example 2, compounds of FIG. 2
# Experimental: (§1) Aggregation assays for screening were prepared by adding a stock solution of compound to a protein solution (final concentrations: 100 μM compound, 50 μM protein). Following a 15 minute preincubation period at 37° C., 5 mM EDTA was added to initiate aggregation. Aliquots were periodically removed and analyzed for the amount of SOD-1 dimer present. This value correlated in all cases with the appearance of oligomers by gel filtration on a Superdex 200™ (3.2/30) gel filtration column (Pharmacia). All chromatography was performed in TBS, pH 7.4 (20 mM Tris, 150 mM NaCl) on a Waters 2690 Alliance HPLC and monitored at 220 and 276 nm. […] Assays in the absence of EDTA were carried as described previously (16). For Apo-A4V experiments, buffers were treated with CHELEX (except those containing EDTA) and experiments were performed in plastic tubes to avoid introduction of contaminating zinc into the Apo-protein.
# A structural analysis was performed on the 15 compounds found to be active in the assays described in Example 1 (see FIG. 1). […] Although most of the compounds tested were purchased commercially, two (1,2-di-[6-Mercapto-2H-[1,2,4]triazine-3,5-dione]ethane; and di-{5-[1H-pyrimidine-2,4-dione]methyl}thioether) were synthesized as described in Example 3.
# A4V/V7F/V148F = target: T1, A4V/V7F/V148F (Homo sapiens, UniProt P00441, A5V/V149F/V8F); experiment: Aggregation of A4V/V7F/V148F (putative binding site disturbed); details: binding site disturbed by V7F/V148F
# T1 construct: made in house; host or cells: E. coli
# Experimental: as §1
# To investigate the effect of partially capping the cavity with hydrophobic moieties, residues V148 and V7, the sidechains of which protruded into the cavity, were mutated to phenylalanine. […] Filling cavities in protein structures with hydrophobic side chains often stabilizes the protein structure (30, 31), lysozyme being a classic example (32).
# Three variants of SOD-1, in which the V7F and V148F mutations were introduced into WT, A4V and G93A, were cloned, expressed in E. coli and purified as described previously (15). Each protein was subjected to guanidine chloride (GdnCl) unfolding and fluorescence intensity (348 nm) was monitored at 25° C. WT enzyme was completely unfolded at 3.5 M GdnCl (Cm=3.2 M, where Cm is the midpoint of transition), while A4V was completely unfolded at 1.9 M GdnCl (Cm=1.51 M). […] G93A/V7F/V148F was slightly more resistant to denaturation than G93A. No significant effect of the two V→F mutations on the denaturation of WT (i.e., WT vs. V7F/V148F) could be measured. The V→F mutations stabilized both A4V and G93A against EDTA induced aggregation. […] Similarly, G93A/V7F/V148F aggregated slightly more slowly than G93A.
# A4V = target: T2, A4V (Homo sapiens, UniProt P00441, A5V); experiment: Guanidinium chloride unfolding of A4V (fluorescence); details: 5 μM protein, fluorescence 348 nm
# T2 construct: made in house
# Description: Equilibrium unfolding transition, as a function of GdnCl concentration, was monitored by fluorescence spectroscopy. The fluorescence measurements were done on a Hitachi f-4500 spectrofluorometer in a 1-cm cell connected to a circulation water bath. The excitation and emission wavelengths were fixed at 278 and 348 nm, respectively, after making appropriate corrections for buffer and GdnCl. The slit width was 5 nm for both monochromators. Each measurement was an average of five readings. Protein concentration used for fluorescence experiments was 5 μM. The data were analyzed directly for a two-state (N→U) transition as follows: the raw data for the GdnCl-induced denaturation studies were converted to fractions of the protein in the unfolded state (fu) as a function of GdnCl concentration using the equation: fu=Y0−(Yf+mf[GdnCl.])/(Yu+mu[GdnCl.])−(Yf+mf[GdnCl.]) where Y0 is the observed spectroscopic property, Yf and mf are the […] of the folded state baseline and Yu and mu represent the respective values of the unfolded baseline. The folded fraction was calculated as (fn=1−fu) and the equilibrium constant was determined by Keq=fu/fn. The free energy of unfolding was determined using the equation ΔG=−RT ln(Keq) where T is the temperature in Kelvin and R is the universal gas constant (1.987 cal mol−1 K−1).
# [1] = target: T3, A4V, a FALS-linked variant of SOD-1 (Homo sapiens, UniProt P00441, A5V); experiment: A4V aggregation assay with EDTA (SOD-1 dimer loss by gel filtration); details: 100 μM compound, 50 μM protein
# T3 construct: made in house
# Experimental: SOD-1 dimer was purified on a Superdex 75™ (16/60) gel filtration column (Pharmacia) to produce starting material for each aggregation experiment. Metal analyses were carried by inductive coupled plasma mass-spectrometry (ICP-MS). WT and G93A were nearly fully metallated, and G85R and A4V were deficient in zinc and copper, respectively.
# as §1
# G93A = target: T4, G93A (Homo sapiens, UniProt P00441, G94A); experiment: EDTA-induced aggregation of G93A
# T4 construct: made in house
# Experimental: as §1
# G85R = target: T5, G85R (Homo sapiens, UniProt P00441, G86R); experiment: EDTA-induced aggregation of G85R
# T5 construct: made in house
# Experimental: as §1
# T4 sequence (P00441 2-154 G94A limits assumed): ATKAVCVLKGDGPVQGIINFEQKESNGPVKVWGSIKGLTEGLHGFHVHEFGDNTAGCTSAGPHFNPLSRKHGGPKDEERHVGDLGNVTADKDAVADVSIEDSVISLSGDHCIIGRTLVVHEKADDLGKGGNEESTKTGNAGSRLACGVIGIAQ
# T1 sequence (P00441 2-154 A5V/V8F/V149F limits assumed): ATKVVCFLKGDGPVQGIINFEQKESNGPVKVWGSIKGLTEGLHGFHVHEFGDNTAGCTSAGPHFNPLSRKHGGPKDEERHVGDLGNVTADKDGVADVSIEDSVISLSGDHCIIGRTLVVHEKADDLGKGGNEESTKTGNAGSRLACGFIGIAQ
# T5 sequence (P00441 2-154 G86R limits assumed): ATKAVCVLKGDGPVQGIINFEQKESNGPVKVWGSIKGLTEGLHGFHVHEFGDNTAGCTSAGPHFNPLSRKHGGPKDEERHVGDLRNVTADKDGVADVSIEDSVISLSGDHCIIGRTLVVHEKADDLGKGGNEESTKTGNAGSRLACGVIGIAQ
# T2 sequence (P00441 2-154 A5V limits assumed): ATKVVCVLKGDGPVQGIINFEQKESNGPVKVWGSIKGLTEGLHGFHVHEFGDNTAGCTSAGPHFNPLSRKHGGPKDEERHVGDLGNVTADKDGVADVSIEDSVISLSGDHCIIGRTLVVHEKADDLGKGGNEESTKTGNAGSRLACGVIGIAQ
# T3 sequence (P00441 2-154 A5V limits assumed): as above
Compound,inhibition of SOD aggregation by structural analogs (SOD),change in the aggregation rate of A4V/V7F/V148F (A4V/V7F/V148F),stabilization of A4V against GdnCl induced unfolding (expressed as ΔG) (A4V),inhibition of A4V aggregation (in words) [1],inhibition of G93A aggregation (G93A),inhibition of G85R aggregation (G85R)
"O=c1[nH]c(=O)n(CCn2nc(S)c(=O)[nH]c2=O)nc1S [1,2-di-[6-Mercapto-2H-[1,2,4]triazine-3,5-dione]ethane]",most active,–,–,–,–,–
"O=c1[nH]cc(CSc2n[nH]c(=O)[nH]c2=O)c(=O)[nH]1 [6-{[(2,4-dioxo-1,2,3,4-tetrahydropyrimidin-5-yl)methyl]thio}-1,2,4-triazine-3,5(2H,4H)-dione]",most active,–,–,–,–,–
"O=c1cc(Nc2ccc(Cl)cc2)[nH]c(=O)[nH]1 [Compound 2, 6-[(4-chlorophenyl)amino]pyrimidine-2,4(1H,4H)-dione]",–,no appreciable change,stabilized A4V nearly to WT levels; also recorded: stabilizes the A4V dimer to an extent comparable to the difference in stability between the invariably lethal A4V and WT SOD-1,most potent A4V aggregation inhibitors; also recorded: among the most potent aggregation inhibitors,among the best inhibitors,among the best inhibitors
"O=c1[nH]nc(SCc2ccc(Cl)cc2)c(=O)[nH]1 [Compound 3, 6-[(4-chlorobenzyl)thio]1,2,4-triazine-3,5(2H,4H)-dione]",–,no appreciable change,stabilized A4V nearly to WT levels,most potent A4V aggregation inhibitors; also recorded: among the most potent aggregation inhibitors,among the best inhibitors,among the best inhibitors
"Oc1ccc(Br)cc1/C=N/c1ccc(F)cc1 [Compound 4, 4-bromo-2-{(E)-[(4-fluorophenyl)imino]methyl}phenol]",–,no appreciable change,stabilized A4V nearly to WT levels,most potent A4V aggregation inhibitors; also recorded: among the most potent aggregation inhibitors,among the best inhibitors,among the best inhibitors
"O=c1[nH]nc(SCc2ccc(F)cc2)c(=O)[nH]1 [Compound 7, 6-[(4-fluorobenzyl)thio]-1,2,4-triazine-3,5(2H,4H)-dione]",–,no appreciable change,stabilized A4V nearly to WT levels,most potent A4V aggregation inhibitors; also recorded: among the most potent aggregation inhibitors,among the best inhibitors,among the best inhibitors
"O=c1[nH]cc(CSCc2c[nH]c(=O)[nH]c2=O)c(=O)[nH]1 [di-{5-[1H-pyrimidine-2,4-dione]methyl}thioether]",most active,–,–,–,–,–
